According to the NIST ThermoML archive (doi:10.1021/je200922s):
Numbers after ± are expanded uncertainties.

Details: 101.33 kPa, Liquid; for viscosity: Capillary tube (Ostwald / Ubbelohde) method; for mass density: Vibrating tube method

| viscosity (293.15 K) [mPa·s] | mass density (293.15 K) [kg/m3] | viscosity (298.15 K) [mPa·s] | mass density (298.15 K) [kg/m3] | viscosity (303.15 K) [mPa·s] | mass density (303.15 K) [kg/m3] | viscosity (308.15 K) [mPa·s] | mass density (308.15 K) [kg/m3] | viscosity (313.15 K) [mPa·s] | mass density (313.15 K) [kg/m3] | viscosity (318.15 K) [mPa·s] | mass density (318.15 K) [kg/m3] | viscosity (323.15 K) [mPa·s] | mass density (323.15 K) [kg/m3] | Compound |
| --- | --- | --- | --- | --- | --- | --- | --- | --- | --- | --- | --- | --- | --- | --- |
| 1.189 ± 0.048 | 789.831 ± 0.12 | 1.095 ± 0.044 | 785.535 ± 0.13 | 1.003 ± 0.041 | 781.22 ± 0.13 | 0.914 ± 0.037 | 776.875 ± 0.13 | 0.845 ± 0.034 | 772.48 ± 0.13 | 0.765 ± 0.031 | 768.042 ± 0.14 | 0.704 ± 0.029 | 762.564 ± 0.14 | CCO [ethanol] |
| 1.811 ± 0.074 | 1032.31 ± 0.26 | 1.667 ± 0.068 | 1027.96 ± 0.25 | 1.543 ± 0.063 | 1023.52 ± 0.25 | 1.437 ± 0.059 | 1019.06 ± 0.25 | 1.343 ± 0.055 | 1014.61 ± 0.24 | 1.258 ± 0.051 | 1010.14 ± 0.24 | 1.184 ± 0.048 | 1005.68 ± 0.24 | CN1CCCC1=O [N-methylpyrrolidone] |

| Compound | viscosity (293.15 K) [mPa·s] | mass density (293.15 K) [kg/m3] | viscosity (298.15 K) [mPa·s] | mass density (298.15 K) [kg/m3] | viscosity (303.15 K) [mPa·s] | mass density (303.15 K) [kg/m3] | viscosity (308.15 K) [mPa·s] | mass density (308.15 K) [kg/m3] | viscosity (313.15 K) [mPa·s] | mass density (313.15 K) [kg/m3] | viscosity (318.15 K) [mPa·s] | mass density (318.15 K) [kg/m3] | viscosity (323.15 K) [mPa·s] | mass density (323.15 K) [kg/m3] |
| --- | --- | --- | --- | --- | --- | --- | --- | --- | --- | --- | --- | --- | --- | --- |
| CCn1cc[n+](C)c1.O=S(=O)([N-]S(=O)(=O)C(F)(F)F)C(F)(F)F | 40.24 ± 1.6 | 1523.28 ± 0.7 | 33.36 ± 1.4 | 1518.25 ± 0.69 | 28.1 ± 1.1 | 1513.23 ± 0.69 | 23.93 ± 0.98 | 1508.2 ± 0.69 | 20.66 ± 0.85 | 1503.16 ± 0.68 | 17.98 ± 0.73 | 1498.19 ± 0.68 | 15.8 ± 0.65 | 1493.33 ± 0.67 |
